Reference: the NIST ThermoML archive (doi:10.1021/je800193a)

Assay: excess molar enthalpy (molar enthalpy of mixing); xn = mol fraction of the nth substance listed
Details: 101.3 kPa, Liquid, Flow calorimetry

CC(=O)c1ccccc1 [acetophenone] + CCCCO
excess molar enthalpy [kcal/mol]
Details	298.2 K	313.2 K	328.2 K	338.2 K	348.2 K
x1 = 0.0996	0.149	0.172	0.187	0.193	0.197
x1 = 0.2005	0.241	0.283	0.314	0.326	0.335
x1 = 0.3001	0.298	0.357	0.394	0.412	0.423
x1 = 0.3501	0.317	0.379	0.422	0.44	0.452
x1 = 0.4002	0.331	0.396	0.441	0.46	0.472
x1 = 0.4504	0.34	0.406	0.452	0.471	0.483
x1 = 0.5005	0.344	0.41	0.456	0.473	0.485
x1 = 0.5506	0.343	0.407	0.452	0.469	0.479
x1 = 0.6006	0.337	0.399	0.44	0.455	0.463
x1 = 0.6504	0.326	0.382	0.419	0.432	0.44
x1 = 0.7001	0.309	0.358	0.391	0.4	0.407
x1 = 0.8	0.252	0.285	0.305	0.311	0.316
x1 = 0.9001	0.154	0.17	0.176	0.18	0.184

CC(=O)c1ccccc1 [acetophenone] + CC(C)CO
excess molar enthalpy [kcal/mol]
Details	298.2 K	313.2 K	328.2 K	338.2 K	348.2 K
x1 = 0.1005	0.166	0.192	0.219	0.223	0.225
x1 = 0.201	0.263	0.312	0.356	0.367	0.369
x1 = 0.301	0.327	0.39	0.449	0.46	0.462
x1 = 0.3512	0.346	0.414	0.476	0.488	0.491
x1 = 0.4014	0.361	0.432	0.494	0.507	0.509
x1 = 0.4516	0.371	0.443	0.504	0.516	0.519
x1 = 0.5017	0.375	0.446	0.505	0.516	0.52
x1 = 0.5518	0.373	0.443	0.498	0.508	0.51
x1 = 0.6016	0.366	0.432	0.482	0.489	0.492
x1 = 0.6513	0.354	0.415	0.456	0.463	0.467
x1 = 0.7008	0.335	0.389	0.423	0.426	0.428
x1 = 0.8016	0.271	0.305	0.324	0.325	0.329
x1 = 0.901	0.164	0.177	0.183	0.185	0.187

CC(=O)c1ccccc1 [acetophenone] + CCOC(C)=O
excess molar enthalpy [kcal/mol]
Details	298.2 K	313.2 K	328.2 K
x1 = 0.1	-0.00292	-0.00284	-0.0028
x1 = 0.2004	-0.00509	-0.00495	-0.0049
x1 = 0.2999	-0.0066	-0.00636	-0.00626
x1 = 0.3501	-0.00707	-0.00679	-0.00674
x1 = 0.4002	-0.00739	-0.00703	-0.00693
x1 = 0.4503	-0.00755	-0.00715	-0.00698
x1 = 0.5002	-0.00755	-0.0071	-0.00688
x1 = 0.5997	-0.00717	-0.00667	-0.00638
x1 = 0.7005	-0.00629	-0.00574	-0.0054
x1 = 0.8004	-0.00483	-0.0043	-0.00392
x1 = 0.9003	-0.00246	-0.00234	-0.00196

CC(=O)c1ccccc1 [acetophenone] + CCCCCCC
excess molar enthalpy [kcal/mol]
Details	298.2 K	313.2 K	328.2 K	338.2 K	348.2 K
x1 = 0.0999	0.173	0.177	0.183	0.184	0.184
x1 = 0.2002	0.271	0.285	0.298	0.301	0.302
x1 = 0.3005	0.313	0.341	0.361	0.369	0.369
x1 = 0.3498	0.323	0.354	0.378	0.388	0.389
x1 = 0.4007	0.326	0.362	0.388	0.398	0.4
x1 = 0.4504	0.327	0.362	0.391	0.402	0.404
x1 = 0.5003	0.322	0.358	0.387	0.399	0.401
x1 = 0.5504	0.313	0.348	0.378	0.39	0.39
x1 = 0.6006	0.301	0.334	0.362	0.373	0.374
x1 = 0.6496	0.285	0.316	0.342	0.352	0.354
x1 = 0.6998	0.264	0.291	0.315	0.323	0.326
x1 = 0.8001	0.208	0.224	0.241	0.245	0.246
x1 = 0.8999	0.121	0.125	0.135	0.136	0.138

CC(=O)c1ccccc1 [acetophenone] + C1CCCCC1
excess molar enthalpy [kcal/mol]
Details	298.2 K	313.2 K	328.2 K	338.2 K	348.2 K
x1 = 0.1004	0.18	0.19	0.193	0.195	0.196
x1 = 0.1999	0.264	0.285	0.295	0.302	0.304
x1 = 0.2999	0.305	0.336	0.353	0.362	0.364
x1 = 0.3499	0.317	0.35	0.368	0.377	0.379
x1 = 0.4002	0.323	0.356	0.374	0.385	0.388
x1 = 0.4497	0.323	0.357	0.375	0.386	0.387
x1 = 0.4996	0.32	0.352	0.37	0.378	0.382
x1 = 0.5498	0.312	0.343	0.359	0.367	0.371
x1 = 0.6005	0.299	0.327	0.341	0.349	0.353
x1 = 0.6503	0.282	0.307	0.319	0.326	0.329
x1 = 0.7004	0.261	0.28	0.289	0.296	0.299
x1 = 0.8005	0.2	0.209	0.213	0.218	0.221
x1 = 0.8995	0.114	0.117	0.118	0.121	0.122

CC(=O)c1ccccc1 [acetophenone] + CCCCCC
excess molar enthalpy [kcal/mol]
Details	298.2 K	313.2 K	328.2 K
x1 = 0.0997	0.169	0.173	0.175
x1 = 0.2	0.263	0.277	0.285
x1 = 0.2994	0.306	0.329	0.342
x1 = 0.3503	0.317	0.343	0.357
x1 = 0.4006	0.321	0.349	0.365
x1 = 0.4503	0.321	0.35	0.367
x1 = 0.4995	0.316	0.346	0.363
x1 = 0.5494	0.308	0.336	0.353
x1 = 0.5999	0.295	0.319	0.337
x1 = 0.6499	0.278	0.293	0.313
x1 = 0.7005	0.257	0.265	0.277
x1 = 0.8	0.2	0.203	0.207
x1 = 0.8995	0.113	0.115	0.117

CC(=O)c1ccccc1 [acetophenone] + CCCCCO
excess molar enthalpy [kcal/mol]
Details	298.2 K	313.2 K	328.2 K	338.2 K	348.2 K
x1 = 0.1003	0.151	0.174	0.186	0.19	0.192
x1 = 0.1998	0.24	0.283	0.311	0.324	0.328
x1 = 0.2998	0.298	0.356	0.394	0.412	0.417
x1 = 0.3497	0.316	0.378	0.421	0.44	0.447
x1 = 0.4001	0.33	0.396	0.441	0.461	0.468
x1 = 0.4496	0.338	0.407	0.453	0.473	0.48
x1 = 0.4994	0.343	0.411	0.457	0.477	0.484
x1 = 0.5497	0.342	0.41	0.453	0.473	0.478
x1 = 0.6004	0.336	0.402	0.442	0.459	0.464
x1 = 0.6501	0.325	0.386	0.422	0.438	0.441
x1 = 0.7003	0.307	0.363	0.393	0.408	0.41
x1 = 0.8004	0.252	0.291	0.306	0.315	0.318
x1 = 0.8995	0.156	0.174	0.177	0.182	0.184

CC(=O)c1ccccc1 [acetophenone] + O
excess molar enthalpy [kcal/mol]
Details	298.2 K	313.2 K	328.2 K	338.2 K	348.2 K
x1 = 0.1002	0.0169	0.0217	0.0313	0.0342	0.0399
x1 = 0.1997	0.033	0.0424	0.0592	0.0608	0.0772
x1 = 0.3001	0.0492	0.0636	0.0876	0.095	0.115
x1 = 0.3991	0.0652	0.0846	0.116	0.124	0.153
x1 = 0.5003	0.0816	0.106	0.145	0.156	0.192
x1 = 0.5991	0.0975	0.127	0.173	0.188	0.23
x1 = 0.6986	0.113	0.148	0.201	0.221	0.269
x1 = 0.7987	0.129	0.168	0.229	0.253	0.308
x1 = 0.8515	0.138	0.175	0.24	0.245	0.274
x1 = 0.8967	0.141	0.16	0.189	0.192	0.204
x1 = 0.9534	0.0718	0.0793	0.0926	0.0937	0.1
